# Reference: patent US6518252B2, “Method of treating aquatic animals with an antimicrobial agent and chelating agent” (priority 2000, dated 2003)
# “And” between values parts separate entries of the source, which are not always exact repeats. Equal values may be shown once.
# Columns and labels:
# Ps. aeruginosa [1] = experiment: Two-dimensional microtiter checkerboard, MIC and FIC of EDTA in 50 mM Tris and antibiotics; format: cell-based, Pseudomonas aeruginosa
# Experimental: (§1) Sabath, L. D, Antimicrob. Agents and Chem. 210-217. (1967) and Sparks et al., Vet. Res. Comm. 18, 241-249 (1994), incorporated herein by reference in their entireties. […] Then 0.05 ml of an 18-hour old culture of a test organism, containing 10^6 colony-forming units (CFU) ml, were added to each well. Controls for the culture and media were included in each plate. Plates were covered and incubated at 37° C. for 18-24 hours. […] To generate isobolograms, FICs of the two test solutions were plotted individually on the x-axis and y-axis to determine the effect of combining the two test solutions on bacterial growth. A line that curves away from the zero point and the coordinates indicated antagonism. […] Sabath, L. D, Antimicrob. Agents and Chem. 210-217. (1967), and incorporated herein by reference in their entireties. A numerical score or Fractional Inhibitory Concentration (FIC) index was determined.
# Staph. aureus [2] = experiment: as above; format: cell-based, Staphylococcus aureus
# Experimental: as §1
# Ent. faecalis = experiment: as above; format: cell-based, Enterococcus faecalis
# Experimental: as §1
# Aeromonas caviae = experiment: MIC and FIC of EDTA in 50 mM Tris and neomycin, Aeromonas isolated from ulcerated fish; format: cell-based; settings: A. caviae
# Experimental: (§2) Sabath, L. D, Antimicrob. Agents and Chem. 210-217. (1967) and Sparks et al., Vet. Res. Comm. 18, 241-249 (1994), incorporated herein by reference in their entireties.
# (§3) Then 0.05 ml of an 18-hour old culture of a test organism, containing 10^6 colony-forming units (CFU) ml, were added to each well. Controls for the culture and media were included in each plate. Plates were covered and incubated at 37° C. for 18-24 hours.
# (§4) To generate isobolograms, FICs of the two test solutions were plotted individually on the x-axis and y-axis to determine the effect of combining the two test solutions on bacterial growth. A line that curves away from the zero point and the coordinates indicated antagonism. […] Sabath, L. D, Antimicrob. Agents and Chem. 210-217. (1967), and incorporated herein by reference in their entireties.
# (§5) A numerical score or Fractional Inhibitory Concentration (FIC) index was determined. The FIC index is equal to the sum of the values of FIC for the individual drugs: [formula]
# (§6) An FIC index greater than 1.0 indicated an antagonistic interaction, an FIC index of 1.0 indicated addition, and an FIC index of less than or equal to 0.5 indicated synergism between the two test agents.
# Aeromonas sobria = experiment: as above; format: cell-based; settings: A. sobria
# Experimental: as §2, §3, §4, §5, §6
# Bacillus sp. = experiment: MIC of commercial chemical disinfectants or EDTA-Tris; format: cell-based; settings: 1 x stock: EDTA-Tris 5 mM EDTA + 50 mM Tris-HCl, Glutracide 1:200, Magnaphen-100 1:400, BioSentry 904 1:256, Synergize 1:256, hydrogen peroxide 3%
# Staph. aureus [3] = experiment: MIC and FIC of chemical disinfectants and EDTA-Tris; format: cell-based, Staphylococcus aureus
# Experimental: as §5, §6
# Ps. aeruginosa [4] = experiment: as above; format: cell-based, Pseudomonas aeruginosa
# Experimental: as §5, §6
# P. mirabilis = experiment: as above; format: cell-based, Proteus mirabilis
# Experimental: as §5, §6
# E. coli = experiment: MIC of commercial chemical disinfectants or EDTA-Tris; format: cell-based; settings: 1 x stock solutions as in footnote of Table 5
# S. enteritidis = experiment: MIC and FIC of chemical disinfectants and EDTA-Tris; format: cell-based
# Experimental: as §5, §6
# [5] = system: S. typhimurium 6578 (parent strain); experiment: as above; format: cell-based
# Experimental: as §5, §6
# [6] = system: S. typhimurium Avian (avian strain); experiment: as above; format: cell-based
# Experimental: as §5, §6
# [7] = system: S. typhimurium DT104 (multiple antibiotic resistant strain); experiment: as above; format: cell-based
# Experimental: as §5, §6
# [8] = system: S. typhimurium TRC1 (mar mutant); format: cell-based
# Experimental: as §5, §6
# B subtilis = experiment: FIC of chemical disinfectants and EDTA-Tris; format: cell-based; settings: chemical disinfectant and EDTA-Tris
# Experimental: as §5, §6
# E. coli Av = experiment: FIC of chemical disinfectants and EDTA-Tris; format: cell-based; settings: chemical disinfectant and EDTA-Tris
# Experimental: as §5, §6
# E. coli V-1 = experiment: FIC of chemical disinfectants and EDTA-Tris; format: cell-based; settings: chemical disinfectant and EDTA-Tris
# Experimental: as §5, §6
# Gram-negative bacteria = experiment: EDTA-Tris disinfectant combinations, summary; format: cell-based; settings: most of the Gram-negative bacteria
# Experimental: as §5, §6
# Fractional inhibitory concentrations for EDTA-Tris disinfectant combinations (synergistic, additive, or antagonistic reactions) were determined for the test organisms. […]
# Gram-positive organisms = experiment: EDTA-Tris disinfectant combinations, summary; format: cell-based
# Experimental: as §5, §6
# Staphylococcus aureus [9] = experiment: Antibiotic resistance profile; format: cell-based; settings: Staphylococcus aureus test strain; also: key: R = resistant; I = intermediate; S = sensitive
# Pseudomonas aeruginosa [10] = experiment: Antibiotic resistance profile; format: cell-based; settings: Pseudomonas aeruginosa test strain; also: key: R = resistant; I = intermediate; S = sensitive
# Enterococcus faecalis [11] = experiment: Antibiotic resistance profile; format: cell-based; settings: Enterococcus faecalis test strain; also: key: R = resistant; I = intermediate; S = sensitive
# Staphylococcus aureus [12] = experiment: Minimal Bactericidal Concentration (MBC), EDTA and neomycin in 50 mM Tris; format: cell-based
# Pseudomonas aeruginosa [13] = experiment: as above; format: cell-based
# Enterococcus faecalis [14] = experiment: as above; format: cell-based
# Aeromonas hydrophila = experiment: MIC and FIC of EDTA in 50 mM Tris and neomycin, Aeromonas isolated from ulcerated fish; format: cell-based; settings: A. hydrophila
# Experimental: as §2, §3, §4, §5, §6
# [15] = 1 x stock solutions as in footnote of Table 5
# [16] = chemical disinfectant and EDTA-Tris
# [17] = 1 x stock solutions as in footnote of Table 6
compound,measurement,setting,value
"O=C(O)CN(CCN(CC(=O)O)CC(=O)O)CC(=O)O [EDTA, ethylenediaminetetracetic acid]","MIC, individually administered EDTA","Ps. aeruginosa [1]; Ps. aeruginosa, EDTA in 50 mM Tris, alone",1250 µM
same,MIC,"Ps. aeruginosa [1]; Pseudomonas aeruginosa, read-out: MIC, individually administered EDTA",1250 µM
same,"MIC, individually administered EDTA","Staph. aureus [2]; Staph. aureus, EDTA in 50 mM Tris, alone",1000 µM
same,MIC,"Staph. aureus [2]; Staphylococcus aureus, read-out: MIC, individually administered EDTA",1000 µM
same,"MIC, individually administered EDTA","Ent. faecalis; Ent. faecalis, EDTA in 50 mM Tris, alone",15630 µM
same,MIC,"Ent. faecalis; Enterococcus faecalis, read-out: MIC, individually administered EDTA",15600 µM
same,"MIC, EDTA in 50 mM Tris alone",Aeromonas caviae,<0.49
same,"MIC, EDTA in 50 mM Tris alone",Aeromonas sobria,15.6
OO [Hydrogen peroxide],MIC,Bacillus sp.,0.05 dilution of stock solution
same,MIC,Staph. aureus [3]; [15],0.02 dilution of stock solution
same,FIC,Staph. aureus [3]; [16],1.48
same,Type of reaction (FIC class),Staph. aureus [3]; [16],B (Antagonistic reaction (FIC > 1.0))
same,MIC,Ps. aeruginosa [4]; [15],0.09 dilution of stock solution
same,FIC,Ps. aeruginosa [4]; [16],0.37
same,Type of reaction (FIC class),Ps. aeruginosa [4]; [16],C (Synergistic reaction (FIC < 0.5))
same,MIC,P. mirabilis; [15],0.19 dilution of stock solution
same,FIC,P. mirabilis; [16],0.37
same,Type of reaction (FIC class),P. mirabilis; [16],C (Synergistic reaction (FIC < 0.5))
same,MIC,E. coli,0.12 dilution of stock solution
same,MIC,S. enteritidis; [17],0.005 dilution of stock solution
same,FIC,S. enteritidis; [16],0.38
same,Type of reaction (FIC class),S. enteritidis; [16],C (Synergistic reaction (FIC < 0.5))
same,MIC,[5]; [17],0.005 dilution of stock solution
same,FIC,[5]; [16],0.5
same,Type of reaction (FIC class),[5]; [16],D (Synergistic reaction (FIC <: 0.5))
same,MIC,[6]; [17],0.005 dilution of stock solution
same,FIC,[6]; [16],0.63
same,Type of reaction (FIC class),[6]; [16],C (Additive reaction (FIC :> 0.5 to < 1.0))
same,MIC,[7]; [17],0.005 dilution of stock solution
same,FIC,[7]; [16],0.75
same,Type of reaction (FIC class),[7]; [16],C (Additive reaction (FIC :> 0.5 to < 1.0))
same,MIC,[8]; [17],0.005 dilution of stock solution
same,FIC,[8]; [16],0.5
same,Type of reaction (FIC class),[8]; [16],D (Synergistic reaction (FIC <: 0.5))
same,FIC,B subtilis,1.0
same,Type of reaction (FIC class),B subtilis,B (Additive reaction (FIC > 0.5 to < 1.0))
same,FIC,E. coli Av,0.50
same,Type of reaction (FIC class),E. coli Av,A (Synergistic reaction (FIC ˜ 0.5))
same,FIC,E. coli V-1,0.53
same,Type of reaction (FIC class),E. coli V-1,C (Additive reaction (FIC > 0.5 to < 1.0))
same,Effect of EDTA-Tris on the antimicrobial effect of the disinfectant,Gram-negative bacteria,potentiated (synergistic or additive)
same,Effect of EDTA-Tris on the antimicrobial effect of the disinfectant,Gram-positive organisms,did not react uniformly
"CN(C)[C@@H]1C(O)=C(C(N)=O)C(=O)[C@@]2(O)C(O)=C3C(=O)c4c(O)cccc4[C@@](C)(O)[C@H]3[C@H](O)[C@@H]12 [Oxytetracycline, oxytetracycline, reference compound]","MIC, antibiotic individually administered","Ps. aeruginosa [1]; Ps. aeruginosa, alone",3 µg/mL
same,"MIC, antibiotic individually administered","Staph. aureus [2]; Staph. aureus, alone",0.1 µg/mL
same,"MIC, antibiotic individually administered","Ent. faecalis; Ent. faecalis, alone",50 µg/mL
"CN[C@H](CC(C)C)C(=O)N[C@H]1C(=O)N[C@@H](CC(N)=O)C(=O)N[C@H]2C(=O)N[C@H]3C(=O)N[C@H](C(=O)N[C@H](C(=O)O)c4cc(O)cc(O)c4-c4cc3ccc4O)[C@H](O)c3ccc(c(Cl)c3)Oc3cc2cc(c3O[C@@H]2O[C@H](CO)[C@@H](O)[C@H](O)[C@H]2O[C@H]2C[C@](C)(N)[C@H](O)[C@H](C)O2)Oc2ccc(cc2Cl)[C@H]1O [Va, vancomycin]",Antibiotic resistance profile,Staphylococcus aureus [9],S
same,Antibiotic resistance profile,Pseudomonas aeruginosa [10],R
same,Antibiotic resistance profile,Enterococcus faecalis [11],R
gentamicin [Gm],Antibiotic resistance profile,Staphylococcus aureus [9],S
same,Antibiotic resistance profile,Pseudomonas aeruginosa [10],I
same,Antibiotic resistance profile,Enterococcus faecalis [11],R
neomycin [reference compound],Antibiotic resistance profile,Staphylococcus aureus [9],R
same,Antibiotic resistance profile,Pseudomonas aeruginosa [10],R
same,Antibiotic resistance profile,Enterococcus faecalis [11],R
same,"MIC, antibiotic individually administered","Ps. aeruginosa [1]; Ps. aeruginosa, alone",1000 µg/mL
same,"MIC, antibiotic individually administered","Staph. aureus [2]; Staph. aureus, alone",3130 µg/mL
same,"MIC, antibiotic individually administered","Ent. faecalis; Ent. faecalis, alone",3130 µg/mL
same,Decrease of MBC value when combined compared to individually administered,"Staphylococcus aureus [12]; Staph. aureus, EDTA and neomycin combined",about 50% and 50%
same,"MBC, neomycin co-administered","Staphylococcus aureus [12]; Staphylococcus aureus, co-administered with EDTA in 50 mM Tris",1560 µg/mL
same,"MBC, neomycin individually administered","Staphylococcus aureus [12]; Staphylococcus aureus, in 50 mM Tris",3130 µg/mL
same,Decrease of MBC value when combined compared to individually administered,"Pseudomonas aeruginosa [13]; Ps. aeruginosa, EDTA and neomycin combined",99.2%
same,"MBC, neomycin co-administered","Pseudomonas aeruginosa [13]; Pseudomonas aeruginosa, co-administered with EDTA in 50 mM Tris",40 µg/mL
same,"MBC, neomycin individually administered","Pseudomonas aeruginosa [13]; Pseudomonas aeruginosa, in 50 mM Tris",5000 µg/mL
same,Decrease of MBC value when combined compared to individually administered,"Enterococcus faecalis [14]; Ent. faecalis, EDTA and neomycin combined",75%
same,"MBC, neomycin co-administered","Enterococcus faecalis [14]; Enterococcus faecalis, co-administered with EDTA in 50 mM Tris",6250 µg/mL
same,"MBC, neomycin individually administered","Enterococcus faecalis [14]; Enterococcus faecalis, in 50 mM Tris",25000 µg/mL
same,"MIC, neomycin alone",Aeromonas caviae,12.5 µg/mL
same,"MIC, neomycin alone",Aeromonas hydrophila,200 µg/mL
same,"MIC, neomycin alone",Aeromonas sobria,12.5 µg/mL
